Holding throughout (assay type): cell-based
The target of one assay is T1, hGIPR (Homo sapiens, UniProt P48546).
T1 construct: expressed in transfected cells
T1 sequence (P48546 22-466): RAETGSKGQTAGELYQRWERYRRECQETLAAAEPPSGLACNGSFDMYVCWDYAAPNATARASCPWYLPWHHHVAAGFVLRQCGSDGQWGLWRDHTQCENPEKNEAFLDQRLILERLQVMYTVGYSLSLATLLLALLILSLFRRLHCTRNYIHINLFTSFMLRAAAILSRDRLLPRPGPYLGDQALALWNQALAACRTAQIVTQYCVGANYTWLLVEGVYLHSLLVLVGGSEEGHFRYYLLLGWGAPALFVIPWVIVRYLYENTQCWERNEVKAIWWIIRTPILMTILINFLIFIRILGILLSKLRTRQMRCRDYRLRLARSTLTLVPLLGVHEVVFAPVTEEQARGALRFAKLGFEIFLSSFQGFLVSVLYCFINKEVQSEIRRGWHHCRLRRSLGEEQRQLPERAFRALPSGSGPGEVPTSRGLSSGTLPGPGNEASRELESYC
Briefly: Functional cAMP formation (HTRF) in HEK-293 clonal cells expressing hGIPR, 0.1% bovine casein, without or with 1.0% human serum albumin. The conditions noted are these: for EC50: geometric mean. A digest of the protocol:
(§1)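 Cells were stimulated with peptide for 30 min at 37° C, then intracellular cAMP was measured by competitive HTRF (665/620 nm ratio) and converted to nM using a cAMP standard curve. Relative EC50 and Emax came from four-parameter logistic fits of percent maximal response against peptide concentration.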
(Changes in cAMP serve as a functional read-out for many G protein-coupled receptors.)

The next assay addresses T2, hGCGR (Homo sapiens, UniProt P47871).
T2 construct: expressed in transfected cells
Briefly: Functional cAMP formation (HTRF) in HEK-293 clonal cells expressing hGCGR, 0.1% bovine casein, without or with 1.0% human serum albumin. The conditions noted are these: geometric mean. A digest of the protocol: as §1

The target of the next assay is hGLP-1R (Homo sapiens, UniProt P43220). The experiment in a line: Functional cAMP formation (HTRF) in HEK-293 clonal cells expressing hGLP-1R, 0.1% bovine casein, without or with 1.0% human serum albumin. On the set-up: expressed in transfected cells. The note with it: 37° C. A digest of the protocol: as §1

Read-outs that look alike come from different tables or passages of the source. Where only a bound is given, the exact number is not on record here.

T2 sequence (P47871 26-477): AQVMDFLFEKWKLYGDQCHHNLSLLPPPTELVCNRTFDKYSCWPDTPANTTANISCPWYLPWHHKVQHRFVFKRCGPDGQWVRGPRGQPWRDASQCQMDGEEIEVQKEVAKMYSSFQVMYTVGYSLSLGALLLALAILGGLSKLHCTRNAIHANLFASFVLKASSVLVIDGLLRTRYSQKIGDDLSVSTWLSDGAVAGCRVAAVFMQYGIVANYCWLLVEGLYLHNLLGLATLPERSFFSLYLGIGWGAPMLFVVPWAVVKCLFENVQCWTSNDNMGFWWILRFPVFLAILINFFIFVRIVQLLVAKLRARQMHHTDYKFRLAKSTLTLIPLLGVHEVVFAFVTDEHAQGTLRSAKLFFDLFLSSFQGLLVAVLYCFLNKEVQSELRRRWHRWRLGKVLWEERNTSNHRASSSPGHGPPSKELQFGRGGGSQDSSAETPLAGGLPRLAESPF
Chain of hGLP-1R (P43220 24-463): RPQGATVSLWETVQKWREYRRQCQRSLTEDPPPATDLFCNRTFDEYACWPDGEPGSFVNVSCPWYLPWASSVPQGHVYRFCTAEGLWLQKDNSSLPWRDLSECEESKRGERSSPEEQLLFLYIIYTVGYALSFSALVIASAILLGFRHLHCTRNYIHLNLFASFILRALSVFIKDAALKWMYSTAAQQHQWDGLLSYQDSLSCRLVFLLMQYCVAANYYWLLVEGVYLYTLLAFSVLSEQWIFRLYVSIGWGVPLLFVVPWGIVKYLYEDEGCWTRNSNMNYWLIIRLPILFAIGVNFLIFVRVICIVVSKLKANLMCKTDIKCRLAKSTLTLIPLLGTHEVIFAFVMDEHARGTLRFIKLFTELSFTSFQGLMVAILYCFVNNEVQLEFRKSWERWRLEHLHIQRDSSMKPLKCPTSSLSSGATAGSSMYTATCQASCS

Take `CC[C@H](C)[C@H](NC(=O)[C@H](CC(C)C)NC(=O)[C@](C)(Cc1ccc(O)cc1)NC(=O)[C@@H](CCC(=O)O)NC(=O)[C@@H](NC(=O)[C@H](Cc1ccccc1)NC(=O)[C@H](CCC(=O)O)NC(=O)C(C)(C)NC(=O)[C@H](CCC(N)=O)NC(=O)[C@H](C)NC(=O)[C@H](CCCCNC(=O)COCCOCCNC(=O)COCCOCCNC(=O)CC[C@H](NC(=O)CCCc1ccc(C(C)(C)C)cc1)C(=O)O)NC(=O)[C@H](CCCN)NC(=O)[C@H](CC(=O)O)NC(=O)[C@H](CC(C)C)NC(=O)[C@](C)(CC(C)C)NC(=O)[C@@H](NC(=O)[C@H](CO)NC(=O)[C@H](CCCCNC(=O)COCCOCCNC(=O)COCCOCCNC(=O)CC[C@H](NC(=O)CCCc1ccc(C(C)(C)C)cc1)C(=O)O)NC(=O)[C@H](CC(=O)O)NC(=O)[C@H](CO)NC(=O)[C@@H](NC(=O)[C@](C)(Cc1ccccc1F)NC(=O)[C@@H](NC(=O)CNC(=O)[C@H](CCC(=O)O)NC(=O)C(C)(C)NC(=O)[C@@H](N)Cc1ccc(O)cc1)[C@@H](C)O)[C@@H](C)O)[C@@H](C)CC)[C@@H](C)CC)C(=O)N[C@@H](CCC(=O)O)C(=O)NCC(=O)NCC(=O)N1CCC[C@H]1C(=O)N[C@@H](CO)C(=O)N[C@@H](CO)C(=O)NCC(=O)N[C@@H](C)C(=O)N1CCC[C@H]1C(=O)N1CCC[C@H]1C(=O)N1CCC[C@H]1C(=O)N[C@@H](CO)C(N)=O` [Example 130]: the Emax at hGIPR (HEK293, percent of maximal response to GIP(1-42)NH2, 37° C., 0.1% bovine casein, arithmetic mean, read-out: hGIPR Emax, % ± SEM) came to 94.7 ± 4.51%; on hGLP-1R (HEK293, percent of maximal response to GLP-1(7-36)NH2, 0.1% bovine casein, arithmetic mean, read-out: hGLP-1R Emax, % ± SEM), 100 ± 1.69%. The EC50 on hGIPR (cAMP, incubated at 37° C., 0.1% bovine casein (no human serum albumin), read-out: hGIPR EC50, nM (SEM, n)) is 0.0266 nM; on hGCGR (cAMP, incubated at 37° C., 0.1% bovine casein (no human serum albumin), read-out: hGCGR EC50, nM (SEM, n)), more than 9950 nM.
In the case of `CC[C@H](C)[C@H](NC(=O)[C@H](CC(C)C)NC(=O)[C@](C)(Cc1ccc(O)cc1)NC(=O)[C@@H](CCC(=O)O)NC(=O)[C@@H](NC(=O)[C@H](Cc1ccccc1)NC(=O)[C@H](CCC(=O)O)NC(=O)C(C)(C)NC(=O)[C@H](CCC(N)=O)NC(=O)[C@H](C)NC(=O)[C@H](CCCCNC(=O)COCCOCCNC(=O)COCCOCCNC(=O)CCCCCCCCCOc1ccc(C(=O)O)cc1)NC(=O)[C@H](CCCN)NC(=O)[C@H](CC(=O)O)NC(=O)[C@H](CC(C)C)NC(=O)[C@](C)(CC(C)C)NC(=O)[C@@H](NC(=O)[C@H](CO)NC(=O)[C@H](Cc1ccncc1)NC(=O)[C@H](CC(=O)O)NC(=O)[C@H](CO)NC(=O)[C@@H](NC(=O)[C@](C)(Cc1ccccc1F)NC(=O)[C@@H](NC(=O)CNC(=O)[C@H](CCC(=O)O)NC(=O)C(C)(C)NC(=O)[C@@H](N)Cc1ccc(O)cc1)[C@@H](C)O)[C@@H](C)O)[C@@H](C)CC)[C@@H](C)CC)C(=O)N[C@@H](CCC(=O)O)C(=O)NCC(=O)NCC(=O)N[C@@H](CCCCNC(=O)COCCOCCNC(=O)COCCOCCNC(=O)CCCCCCCCCOc1ccc(C(=O)O)cc1)C(=O)N[C@@H](CO)C(=O)N[C@@H](CO)C(=O)NCC(=O)N[C@@H](C)C(=O)N1CCC[C@H]1C(=O)N1CCC[C@H]1C(=O)N1CCC[C@H]1C(=O)N[C@@H](CO)C(N)=O` [Example 10], the Emax amounted to 84.9 ± 1.84% at hGIPR (HEK293, read-out: hGIPR Emax, % ± SEM, 0.1% bovine casein and 1.0% human serum albumin, 37° C., percent of maximal response to GIP(1-42)NH2); 97.9 ± 1.99% on hGIPR (HEK293, read-out: hGIPR Emax, % ± SEM, percent of maximal response to GIP(1-42)NH2, 37° C., 0.1% bovine casein, arithmetic mean). The EC50 on hGIPR (hGIPR EC50, nM (SEM, n), 0.1% bovine casein and 1.0% human serum albumin, 37° C.) was 0.121 nM; at hGIPR (hGIPR EC50, nM (SEM, n), cAMP, incubated at 37° C., 0.1% bovine casein (no human serum albumin)), 0.0106 nM; on hGCGR (hGCGR EC50, nM (SEM, n), 0.1% bovine casein and 1.0% human serum albumin, 37° C.), more than 9950 nM; on hGCGR (hGCGR EC50, nM (SEM, n), cAMP, incubated at 37° C., 0.1% bovine casein (no human serum albumin)), more than 9950 nM; on hGLP-1R (hGLP-1R EC50, nM (SEM, n), 0.1% bovine casein and 1.0% human serum albumin, geometric mean) it was 4.38 nM.

Usually Emax stands for the maximal effect, on the per cent scale that the assay sets. A word on the EC50: it is the concentration that produces a half-maximal response.

Values taken from US20230265151A1, “GIP/GLP1 CO-AGONIST COMPOUNDS” (priority 2020, published 2023).
